Measurements reported in patent publication EP1200445B1, “THIENOPYRANECARBOXAMIDE DERIVATIVES” (RECORDATI INDUSTRIA CHIMICA E FARMACEUTICA S.p.a., priority 1999, dated 2001).
Like-named read-outs stand apart in the source and are kept apart here.

Assays:
[1] = system: diastolic blood pressure (DBP); conditions: dogs, i.v.; data from Leonardi et al., J Pharmacol Exp Ther 281, 1272-1283 (1997); cited from earlier work
α1L adrenoceptor subtype = target: T1, α1L adrenoceptor subtype (Oryctolagus cuniculus, UniProt O02824); test: Functional affinity for α1L-adrenoceptors: noradrenaline-induced contractions of rabbit aorta pretreated with chloroethylclonidine; assay type: biochemical; conditions: rabbit aorta rings pretreated with chloroethylclonidine, NA-induced contractions, Schild plot or apparent Kb
T1 sequence (O02824 1-466): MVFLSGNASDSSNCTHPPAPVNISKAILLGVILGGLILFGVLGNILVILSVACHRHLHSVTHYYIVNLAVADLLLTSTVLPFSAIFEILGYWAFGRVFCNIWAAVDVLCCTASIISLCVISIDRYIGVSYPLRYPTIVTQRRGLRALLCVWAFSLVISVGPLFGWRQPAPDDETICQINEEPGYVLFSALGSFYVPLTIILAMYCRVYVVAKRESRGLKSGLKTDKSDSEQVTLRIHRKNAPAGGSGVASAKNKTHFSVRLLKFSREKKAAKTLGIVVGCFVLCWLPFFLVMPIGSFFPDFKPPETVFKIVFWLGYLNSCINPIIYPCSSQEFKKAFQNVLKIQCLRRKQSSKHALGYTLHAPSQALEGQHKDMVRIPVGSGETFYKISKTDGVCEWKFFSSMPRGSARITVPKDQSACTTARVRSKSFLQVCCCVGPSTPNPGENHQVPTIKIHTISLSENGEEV
Description: Adult male New Zealand rabbits were sacrificed by cervical dislocation. The aorta was removed, placed in Krebs-Henseleit buffer and dissected free of adhering tissue. […] After washout of NA and re-equilibration of the tissue (45 minutes), the drug to be tested was added and, after 30 minutes, a second NA-cumulative-concentration/response curve constructed. Each antagonist concentration was tested using 2-3 aortic rings from different rabbits.

[2] = system: urethral contractions (UC) induced by noradrenaline (NA); conditions: dogs, i.v.; data from Leonardi et al., J Pharmacol Exp Ther 281, 1272-1283 (1997); cited from earlier work
[3] = system: urethral contractions (UC) induced by noradrenaline (NA); test: Effects on urethral contractions induced by noradrenaline injection in dogs after i.v. administration; assay type: in vivo, beagle dogs; conditions: for ED50: Canis lupus familiaris, iv, anaesthetised male beagle dogs, i.v., dose inhibiting by 50% the NA-induced increase in urethral pressure, read-out: UC ID50 NA; for Ratio (DBP/UC): ratio between the active doses DBP ED25 / UC ID50, dogs i.v.
Description: The experiments were performed according to the method of Imagawa et al. (J. Pharmacol. Methods 22, 103-111 (1989)), with substantial modifications, as follows: adult male beagle dogs, weighing 8-10 kg, were anaesthetised with pentobarbital sodium (30 mg/kg i.v. and 2 mg/kg/h i.v.), intubated and spontaneously ventilated with room air. In order to monitor systemic blood pressure (BP), a polyethylene (PE) catheter was introduced into the aortic arch through the left femoral artery. A collateral of the left femoral vein was cannulated for infusion of anaesthetic, and the right femoral vein was cannulated for administration of compounds. For intraarterial (i.a.) injection of noradrenaline (NA), a PE catheter was introduced into the lower portion of the abdominal aorta via the right external iliac artery. Through such procedure, NA was selectively distributed to the lower urinary tract. A paramedian vertical suprapubic incision extending from the base of the pelvis to the mid-abdominal region was made and the bladder and the prostate were exposed. The bladder was manually emptied with a syringe. Prostatic urethral pressure was monitored with a Mikro-tip cathe[…]) introduced into the bladder via the external urethral meatus, and withdrawn until the pressure transducer was positioned in the prostatic region of the urethra. A ligature was secured between the neck of the bladder and urethra to isolate the response of the latter and to avoid any interaction with the bladder. Another ligature was put around the Mikro-tip catheter at the external meatus, to secure the catheter itself. […] In order to compare the effects of the administered compound, dose/response curves (log dose transformation) were constructed by computing, at the peak effect, the percent decrease in diastolic blood pressure and percent inhibition of the increase in urethral pressure induced by NA.

[4] = system: diastolic blood pressure (DBP); test: Effects on blood pressure in dogs after i.v. administration; assay type: in vivo; conditions: anaesthetised male beagle dogs, dose inducing a 25% decrease in diastolic blood pressure
Description: The experiments were performed according to the method of Imagawa et al. (J. Pharmacol. Methods 22, 103-111 (1989)), with substantial modifications, as follows: adult male beagle dogs, weighing 8-10 kg, were anaesthetised with pentobarbital sodium (30 mg/kg i.v. and 2 mg/kg/h i.v.), intubated and spontaneously ventilated with room air. In order to monitor systemic blood pressure (BP), a polyethylene (PE) catheter was introduced into the aortic arch through the left femoral artery. A collateral of the left femoral vein was cannulated for infusion of anaesthetic, and the right femoral vein was cannulated for administration of compounds. For intraarterial (i.a.) injection of noradrenaline (NA), a PE catheter was introduced into the lower portion of the abdominal aorta via the right external iliac artery. Through such procedure, NA was selectively distributed to the lower urinary tract. A paramedian vertical suprapubic incision extending from the base of the pelvis to the mid-abdominal region was made and the bladder and the prostate were exposed. The bladder was manually emptied with a syringe. Prostatic urethral pressure was monitored with a Mikro-tip catheter (5F) introduced into the bladder via the external urethral meatus, and withdrawn until the pressure transducer was positioned in the prostatic region of the urethra. A ligature was secured between the neck of the bladder and urethra to isolate the response of the latter and to avoid any interaction with the bladder. Another ligature was put around the Mikro-tip catheter at the external meatus, to secure the catheter itself.
After a stabilising period following the surgical procedure (30 minutes), in which arterial and prostatic urethral pressures were continuously monitored as basal values, i.a. administration of NA was made at intervals of 20 minutes.
The doses of NA chosen were such to produce an increase of at least 100% in urethral pressure. The test compounds were administered i.v. in a cumulative manner with intervals of 15-20 minutes between administrations. […]

Structure (SMILES)	DBP ED25 [1] [µg/kg]	pKb (α1L adrenoceptor subtype)	UC ID50 NA [2] [µg/kg]	ED50 [3] [µg/kg]	Ratio (DBP/UC) [3]	DBP ED25 [4] [µg/kg]
COc1ccccc1N1CCN(CCCNC(=O)c2cccc3c(=O)c(C)c(-c4ccccc4)oc23)CC1 [Compound A]	243	8.64	2.4			
COc1ccc(Cl)cc1N1CCN(CCCNC(=O)c2csc3c(=O)cc(-c4ccccc4)oc23)CC1 [Example 1, N-{3-[4-(5-Chloro-2-methoxyphenyl)-1-piperazinyl]-propyl}-7-oxo-5-phenyl-7H-thieno[3,2-b]pyran-3-carboxamide]				5.3	52.8	280
COc1ccccc1N1CCN(CCCNC(=O)c2csc3c(=O)cc(-c4ccccc4)oc23)CC1 [Example 2, N-{3-[4-(2-Methoxyphenyl)-1-piperazinyl]-propyl}-7-oxo-5-phenyl-7H-thieno[3,2-b]pyran-3-carboxamide]				1.8	19.7	35.5
O=C(NCCCN1CCN(c2ccccc2OCC(F)(F)F)CC1)c1csc2c(=O)cc(-c3ccccc3)oc12 [Example 5, 7-Oxo-5-phenyl-N-{3-[4-[2-(2,2,2-trifluoroethoxy)-phenyl]-1-piperazinyl]-propyl}-7H-thieno[3,2-b]pyran-3-carboxamide]				2.7	>370	>1000
